In series [1] the test system is LLC-PK1 monolayer model. Briefly: Inhibition study of [14C]fluciclovine apical-to-basal transport, LLC-PK1 monolayer model. Conditions: 1 mM inhibitor, 10 µM [14C]fluciclovine. The source says:
Natural and synthetic amino acids were used as inhibitors: MeAIB (2-(methylamino)-isobutyric acid, for system A in the presence of Na^+); Thr (L-threonine, for system ASC in the presence of Na^+); and BCH (2-aminobicyclo[2,2,1]heptane-2-carboxylic acid, for system L in the absence of Na^+).

The test system of series [2] is sodium-coupled neutral amino acid transporter 2 (SNAT2). Further details: method as in PMID 23647854. Conditions: cited from earlier work.
The test system of series [3] is alanine-serine-cysteine transporter 2 (ASCT2). Further details: method as in PMID 23647854. Conditions: cited from earlier work.
For series [4], the system named is L-type amino acid transporter 1 (LAT1). Further details: method as in PMID 23647854. Conditions: cited from earlier work.
The subject of series [5] is [18F]fluciclovine uptake. Also on record: method as in PMID 21536930. Conditions: cited from earlier work.
Series [6] deals with LLC-PK1 monolayers. Briefly: Apical-to-basal transport through LLC-PK1 monolayers. Type of series: in vitro ADME, pig. The method, then: The LLC-PK1 cell line was purchased from DS Pharma Biomedical (Osaka, Japan). Cells were maintained in Dulbecco’s modified Eagle’s medium (DMEM; Life Technologies Japan, Tokyo, Japan) supplemented with 10% (v/v) fetal bovine serum (American Type Culture Collection, Manassas, VA, USA) and antibiotics (100 U/mL penicillin and 100 μg/mL streptomycin (Life Technologies Japan)). Cells were cultured at 37 °C under an atmosphere containing 5% CO2 before the start of the experiments.
Cells were seeded at a density of 1.5 × 10^6 cells/0.25 mL on the membrane of cell culture inserts fitting 24-well plates (upper compartment, apical side; Becton Dickinson, Franklin Lakes, NJ, USA). Flat-bottom 24-well tissue culture plates (Becton Dickinson) containing 0.95 mL of culture medium per well were used as the basolateral side (bottom compartment).
LLC-PK1 monolayer formation was monitored by the measurement of TER using an EVOM-2 and Endohm24 (World Precision Instruments, Inc., Sarasota, FL, USA) according to the manufacturer’s protocol. […] [^3H]Mannitol transport was measured as described in Section 4.3 for the validation of tight junction formation because mannitol passes through the cell monolayers via the paracellular route.
Experimental procedures were performed as described previously with minor modifications. After cultivation as described above, the culture media in both compartments were replaced with Na^+ buffer (137 mM NaCl, 2.7 mM KCl, 8 mM Na2HPO4, 1.5 mM KH2PO4, 5.6 mM D-glucose, 0.9 mM CaCl2, and 0.5 mM MgCl2; pH 7.4 at 37 °C), and the cells were preincubated for 10 min at 37 °C under normal air conditions. After the buffer was removed from each compartment, the permeability experiments were started with the addition of 0.25 mL of Na^+ buffer containing radiolabeled tracers (final concentration: 81 nM for [^3H]mannitol and 10 μM for the ^14C-labeled amino acid tracers) in each upper compartment, and 0.95 mL of Na^+ buffer in each bottom compartment. The inserts were placed into new 24-well culture plates containing 0.95 mL/well of Na^+ buffer after 5, 15, 30, 60, and 90 min of incubation. Subsequently, the cells were incubated up to 120 min at 37 °C under normal air conditions.
The apical-to-basal permeability was measured by sampling an aliquot of the buffer from the upper and bottom compartment at the indicated times. To evaluate intracellular accumulation, the cells were lysed in 0.5 mL of 0.1N NaOH at room temperature following rapid washing of the cells with ice-cold Na^+ buffer. The radioactivity of each aliquot was measured with an LSC6000SC (Beckman Coulter, Inc., Brea, CA, USA) or Tri-Carb 2910TR liquid scintillation counter (PerkinElmer) using Ultima Gold (PerkinElmer).

Substrate in series [7]: N[C@]1(C(=O)O)C[C@@H](F)C1
Briefly: cells, lysate or membranes named. Conditions: not significant vs control vesicles, pH 7.0.

As for `CNC(C)(C)C(=O)O` [MeAIB, 2-(methylamino)-isobutyric acid], in series [1] (Na+ buffer), the “inhibition of [14C]fluciclovine apical-to-basal transport” value is on record as “no significant inhibition”.

The Km is the concentration of substrate that gives half-maximal velocity. `N[C@]1(C(=O)O)C[C@@H](F)C1` [[^18F]fluciclovine, trans-1-amino-3-[^18F]fluorocyclobutanecarboxylic acid]: the Michaelis-Menten constant (Km) in series [2] is 222 µM; in series [3], 92 µM; in series [4], 230 µM.

As to `NC1(C(=O)O)CC2CCC1C2` (stereo not drawn) [BCH, 2-aminobicyclo[2,2,1]heptane-2-carboxylic acid], the “inhibition of [14C]fluciclovine apical-to-basal transport” value in series [1] (Na+-free buffer) was “no significant inhibition”.

`C[C@@H](O)[C@H](N)C(=O)O` [Thr, L-threonine]: the “inhibition of [14C]fluciclovine apical-to-basal transport” value in series [1] (Na+ buffer) was “significant inhibition”.

Turning to `Nc1ccc(C(=O)NCC(=O)O)cc1` [p-aminohippurate], in series [5], the “inhibition of [18F]fluciclovine uptake” value is given as “approximately 5%”.

For the molecule `OC[C@@H](O)[C@@H](O)[C@H](O)[C@H](O)CO` [[^3H]mannitol, D-[1-^3H(N)]mannitol], the “mean percentage of [3H]mannitol permeation” value worked out at 19.3% in series [6] (day 1 after seeding), 1.23% in series [6] (day 4 after seeding) and 2.29% in series [6] (day 7 after seeding).

B1: human MRP4 (Homo sapiens) (protein)
chain: MLPVYQEVKPNPLQDANLCSRVFFWWLNPLFKIGHKRRLEEDDMYSVLPEDRSQHLGEELQGFWDKEVLRAENDAQKPSLTRAIIKCYWKSYLVLGIFTLIEESAKVIQPIFLGKIINYFENYDPMDSVALNTAYAYATVLTFCTLILAILHHLYFYHVQCAGMRLRVAMCHMIYRKALRLSNMAMGKTTTGQIVNLLSNDVNKFDQVTVFLHFLWAGPLQAIAVTALLWMEIGISCLAGMAVLIILLPLQSCFGKLFSSLRSKTATFTDARIRTMNEVITGIRIIKMYAWEKSFSNLITNLRKKEISKILRSSCLRGMNLASFFSASKIIVFVTFTTYVLLGSVITASRVFVAVTLYGAVRLTVTLFFPSAIERVSEAIVSIRRIQTFLLLDEISQRNRQLPSDGKKMVHVQDFTAFWDKASETPTLQGLSFTVRPGELLAVVGPVGAGKSSLLSAVLGELAPSHGLVSVHGRIAYVSQQPWVFSGTLRSNILFGKKYEKERYEKVIKACALKKDLQLLEDGDLTVIGDRGTTLSGGQKARVNLARAVYQDADIYLLDDPLSAVDAEVSRHLFELCICQILHEKITILVTHQLQYLKAASQILILKDGKMVQKGTYTEFLKSGIDFGSLLKKDNEESEQPPVPGTPTLRNRTFSESSVWSQQSSRPSLKDGALESQDTENVPVTLSEENRSEGKVGFQAYKNYFRAGAHWIVFIFLILLNTAAQVAYVLQDWWLSYWANKQSMLNVTVNGGGNVTEKLDLNWYLGIYSGLTVATVLFGIARSLLVFYVLVNSSQTLHNKMFESILKAPVLFFDRNPIGRILNRFSKDIGHLDDLLPLTFLDFIQTLLQVVGVVSVAVAVIPWIAIPLVPLGIIFIFLRRYFLETSRDVKRLESTTRSPVFSHLSSSLQGLWTIRAYKAEERCQELFDAHQDLHSEAWFLFLTTSRWFAVRLDAICAMFVIIVAFGSLILAKTLDAGQVGLALSYALTLMGMFQWCVRQSAEVENMMISVERVIEYTDLEKEAPWEYQKRPPPAWPHEGVIIFDNVNFMYSPGGPLVLKHLTALIKSQEKVGIVGRTGAGKSSLISALFRLSEPEGKIWIDKILTTEIGLHDLRKKMSIIPQEPVLFTGTMRKNLDPFNEHTDEELWNALQEVQLKETIEDLPGKMDTELAESGSNFSVGQRQLVCLARAILRKNQILIIDEATANVDPRTDELIQKKIREKFAHCTVLTIAHRLNTIIDSDKIMVLDSGRLKEYDEPYVLLQNKESLFYKMVQQLGKAEAAALTETAKQVYFKRNYPHIGHTDHMVTNTSNGQPSTLTIFETAL
Consider B1, for which the Km in series [7] (other: MRP4 vesicles) was found to be 15300 ± 44100 µM.

B2: human BCRP (Homo sapiens) (protein)
chain: MSSSNVEVFIPVSQGNTNGFPATASNDLKAFTEGAVLSFHNICYRVKLKSGFLPCRKPVEKEILSNINGIMKPGLNAILGPTGGGKSSLLDVLAARKDPSGLSGDVLINGAPRPANFKCNSGYVVQDDVVMGTLTVRENLQFSAALRLATTMTNHEKNERINRVIQELGLDKVADSKVGTQFIRGVSGGERKRTSIGMELITDPSILFLDEPTTGLDSSTANAVLLLLKRMSKQGRTIIFSIHQPRYSIFKLFDSLTLLASGRLMFHGPAQEALGYFESAGYHCEAYNNPADFFLDIINGDSTAVALNREEDFKATEIIEPSKQDKPLIEKLAEIYVNSSFYKETKAELHQLSGGEKKKKITVFKEISYTTSFCHQLRWVSKRSFKNLLGNPQASIAQIIVTVVLGLVIGAIYFGLKNDSTGIQNRAGVLFFLTTNQCFSSVSAVELFVVEKKLFIHEYISGYYRVSSYFLGKLLSDLLPMRMLPSIIFTCIVYFMLGLKPKADAFFVMMFTLMMVAYSASSMALAIAAGQSVVSVATLLMTICFVFMMIFSGLLVNLTTIASWLSWLQYFSIPRYGFTALQHNEFLGQNFCPGLNATGNNPCNYATCTGEEYLVKQGIDLSPWGLWKNHVALACMIVIFLTIAYLKLLFLKKYS
With B2, the Km in series [7] (other: BCRP vesicles) turned out to be 1340 ± 1450 µM.
